# Measurements taken from article PMC3362486 (Chemico-Biological Interactions, 2012).
# Key:
# CYP2A6 [1] = biological target: T1, CYP2A6 (Homo sapiens, UniProt P11509); assay: biochemical; format: biochemical
# T1 sequence (P11509 1-494): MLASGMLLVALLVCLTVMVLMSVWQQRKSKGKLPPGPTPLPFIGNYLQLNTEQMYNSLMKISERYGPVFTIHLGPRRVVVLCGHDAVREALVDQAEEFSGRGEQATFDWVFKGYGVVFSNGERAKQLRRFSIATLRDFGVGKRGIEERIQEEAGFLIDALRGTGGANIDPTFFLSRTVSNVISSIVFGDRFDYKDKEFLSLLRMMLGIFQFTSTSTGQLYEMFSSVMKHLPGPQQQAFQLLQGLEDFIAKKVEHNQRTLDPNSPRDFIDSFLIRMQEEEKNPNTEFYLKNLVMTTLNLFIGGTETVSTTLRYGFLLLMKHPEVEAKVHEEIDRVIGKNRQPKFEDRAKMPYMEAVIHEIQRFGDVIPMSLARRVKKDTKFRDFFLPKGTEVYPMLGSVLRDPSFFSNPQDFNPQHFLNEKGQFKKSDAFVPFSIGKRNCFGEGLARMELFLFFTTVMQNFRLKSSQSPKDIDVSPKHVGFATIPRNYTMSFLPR
# CYP2A6 [2] = biological target: T1, CYP2A6; format: biochemical
# CYP2A6 [3] = biological target: T1, CYP2A6; settings: cited from earlier work
# CYP2A13 [4] = biological target: T2, CYP2A13 (Homo sapiens, UniProt Q16696); assay: in vitro; format: biochemical; settings: for activity at 10 min, 20 µM: human, pH 7.4, probe coumarin (7-hydroxylation), 20 μM in the secondary reaction
# T2 sequence (Q16696 1-494): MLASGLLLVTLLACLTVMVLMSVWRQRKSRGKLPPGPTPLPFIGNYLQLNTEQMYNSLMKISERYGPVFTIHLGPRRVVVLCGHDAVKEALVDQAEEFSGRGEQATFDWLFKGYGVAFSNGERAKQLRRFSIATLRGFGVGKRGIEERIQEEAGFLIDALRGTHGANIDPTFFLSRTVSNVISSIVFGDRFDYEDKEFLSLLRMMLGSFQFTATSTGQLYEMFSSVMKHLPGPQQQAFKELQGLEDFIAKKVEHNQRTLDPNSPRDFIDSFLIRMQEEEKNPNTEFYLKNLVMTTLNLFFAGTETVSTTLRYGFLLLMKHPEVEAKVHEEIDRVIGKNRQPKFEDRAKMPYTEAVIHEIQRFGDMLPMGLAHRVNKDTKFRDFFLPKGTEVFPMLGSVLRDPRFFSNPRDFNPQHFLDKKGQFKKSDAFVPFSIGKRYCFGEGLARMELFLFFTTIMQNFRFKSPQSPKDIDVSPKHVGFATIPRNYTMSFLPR
# CYP2A13 [5] = biological target: T2, CYP2A13; settings: cited from earlier work
# CYP2A6 [6] = biological target: T1, CYP2A6; assay: CYP2A6 inactivation kinetics and partition ratio; format: biochemical
# CYP2A6 [7] = biological target: T1, CYP2A6; assay: Effect of NADPH and trapping agents; format: biochemical; settings: for Percent Activity Remaining (10 min relative to 0 min): menthofuran 5 μM or β-nicotyrine 20 μM
# CYP2A6 [8] = biological target: T1, CYP2A6; assay: Irreversibility of CYP2A6 inactivation; format: biochemical
# CYP2A13 [9] = biological target: T2, CYP2A13; assay: biochemical
smiles,measurement,setting,value
"CC(C)[C@@H]1CC[C@@H](C)C[C@H]1O [Menthol, (1R,2S,5R)-2-isopropyl-5-methylcyclohexanol]",Ki,CYP2A6 [1],110000 ± 10700 nM
same,"Inhibition of CYP2A6, times less potent than menthofuran and β-nicotyrine",CYP2A6 [1]; comparison of KI values,100 times
same,Inactivation of CYP2A6 (in words),CYP2A6 [2]; inhibitor 20 μM with NADPH,no indication
same,Inhibition of CYP2A6 (in words),CYP2A6 [3],weak inhibitor
same,"activity at 10 min, 20 µM",CYP2A13 [4],87 ± 11%
same,Inactivation of CYP2A13 (in words),CYP2A13 [4]; inhibitor 20 μM with NADPH,no indication
"CN(CCCC(=O)c1cccnc1)N=O [NNK, 4-(methylnitrosamino)-1-(3-pyridyl)-1-butanone]","Catalytic efficiency (kcat/Km) of metabolic activation, CYP2A13 versus CYP 2A6",CYP2A13 [5],200 fold
"Cc1coc2c1CC[C@@H](C)C2 [Menthofuran, 3,6R-dimethyl-4,5,6,7-tetrahydro-1-benzofuran]","KI for inactivation of CYP2A6, fold lower than that of β-nicotyrine",CYP2A6 [6],~50 fold
same,"Partition ratio, times higher than for β-nicotyrine-mediated inactivation",CYP2A6 [6]; calculated partition ratio,~ 3.5 times
same,Ki,CYP2A6 [1],290 ± 50 nM
same,Loss of CYP2A6 coumarin 7-hydroxylation activity,"CYP2A6 [2]; inhibitor 20 μM, in the presence of NADPH",95%
same,Percent Activity Remaining (10 min relative to 0 min),CYP2A6 [7]; inhibitor + NADPH + glutathione (10mM),48%
same,Percent Activity Remaining (10 min relative to 0 min),CYP2A6 [7]; inhibitor + NADPH + semicarbazide (10mM),40%
same,Percent Activity Remaining (10 min relative to 0 min),CYP2A6 [7]; inhibitor + NADPH,43%
same,Loss of CYP2A6 enzyme activity,"CYP2A6 [7]; menthofuran 5 μM or β-nicotyrine 20 μM with NADPH, 10 min",about 60%
same,Reversibility of CYP2A6 inactivation upon removal of unbound small molecules,CYP2A6 [8],not reversible
same,"activity at 10 min, 20 µM",CYP2A13 [4],91 ± 5%
same,Loss of CYP2A13 activity,CYP2A13 [4]; inhibitor 20 μM with NADPH,no significant loss
same,Loss of CYP2A13-catalyzed coumarin 7-hydroxylation at higher concentration,"CYP2A13 [4]; menthofuran 200 μM or 30 min incubations, data not shown",no loss
same,Ki,CYP2A13 [9],1240 ± 260 nM
